Measurements taken from PubChem BioAssay (NCI).
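Tested at 5 concentrations; 48 h exposure; 96-well plates; endpoints linearly interpolated, else capped at highest concentration. Definition used: TGI = concentration required for complete inhibition of growth.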

Tests used:
Assay in all cases: DTP human tumour cell line panel, 48 h
[1] = test system: ACHN renal
[2] = test system: NCI-H23 lung
[3] = test system: NCI-H460 lung
[4] = test system: SK-MEL-28 melanoma
[5] = test system: SNB-19 CNS
[6] = test system: SNB-75 CNS
[7] = test system: SW-620 colon
[8] = test system: TK-10 renal
[9] = test system: UO-31 renal
[10] = test system: UACC-62 melanoma

SMILES | TGI [1] [µM] | TGI [2] [µM] | TGI [3] [µM] | TGI [4] [µM] | TGI [5] [µM] | TGI [6] [µM] | TGI [7] [µM] | TGI [8] [µM] | TGI [9] [µM] | TGI [10] [µM]
OCCO[P+]1(OCCO)n2c3ccc2C(c2ccccc2)=C2C=CC(=N2)C(c2ccccc2)=c2ccc(n21)=C(c1ccccc1)C1=NC(=C3c2ccccc2)C=C1 | 1.1 | 0.327 | 1.04 | 0.466 | 1.96 | 0.273 | 1.09 | 1.5 | 4.06 | 
O=C1/C(=C/c2ccco2)NC(=S)N1CN1CCOCC1 | > 100 | > 100 |  | > 100 | > 100 | > 100 | > 100 | > 100 | > 100 | > 100
COc1ccc2c(c1)CC[C@@H]1[C@@H]2CC[C@]2(C)C(=O)/C(=C/c3cc(OC)c(OC)c(OC)c3)C[C@@H]12 | 40.7 | 53.3 | > 100 |  | > 100 | 38.9 | > 100 | 34.2 | > 100 | > 100
CCC(C)C1(O)OC2CC3(C)OC(=CC3=O)/C(C)=C\C3OC(=O)C1(C)C32 (stereo not drawn) | 23.5 | 24.7 | 57.9 | > 100 | 77.5 | > 100 |  | 54.2 | 47.4 | 35.3
O=C(O)c1ccc(Nc2nc3ccccc3nc2C(=O)O)cc1 | > 100 | > 100 | > 100 | > 100 | > 100 | > 100 |  | > 100 | > 100 | > 100
N#Cc1c(N2CCN(c3ccc([N+](=O)[O-])cc3)CC2)[n+](=O)c2ccc(Cl)cc2n1[O-] | 2.24 | 3.96 | 3.7 | > 39.2 | > 32.8 | > 27.9 | 1.81 | 8.86 | 5.75 | 
CC(=O)OCC1OC(c2nnc(C)o2)=CC(OC(C)=O)C1OC(C)=O (stereo not drawn) | > 100 | > 100 | > 100 | > 100 | > 100 | > 100 | > 100 | > 100 | > 100 | 
Nc1c(S(=O)(=O)O)cc(Nc2cccc(S(=O)(=O)/C=C/S(=O)(=O)O)c2)c2c1C(=O)c1ccccc1C2=O | > 100 | > 100 | > 100 | > 100 | > 100 | > 100 | > 100 | > 100 |  | > 100
COC1/C=C/C(C)C(C(C)C(OC)C(C)CCC(=O)C(C)C(C/C=C/N(C)C=O)OC)OC(=O)/C=C/C=C(\C)CC(OC)C(OC)C2=CC(=O)O[C@@H](C(C)C(OC)CC(OC)/C=C/C(C)C(O)C1)[C@H]2O (stereo partly drawn) | 0.594 | 0.373 | 0.553 | 0.878 |  |  | 0.343 | 0.166 | 0.267 | 0.314
Cc1c(F)c(N)c2c(=O)cc(-c3ccc(NC(=O)C(N)CCCN=C(N)N)c(F)c3)oc2c1F (stereo not drawn) | 48.5 | > 73.8 | > 64.9 | 63.6 | > 100 |  | > 100 | 30.5 | > 55.8 | 
COc1cc(C2S/C(=C/c3ccccc3)C(=O)N2c2cccc([N+](=O)[O-])c2)cc(OC)c1OC (stereo not drawn) | > 100 | > 100 |  | > 100 | > 100 |  |  | > 100 | > 100 | > 100
Clc1ncnc2c1ncn2CCCCCCCCCCCCn1cnc2c(Cl)ncnc21 | 27.9 | 10.8 | 31.8 | 6.82 | 27.8 |  | 60.8 | 54.1 | 25.8 | 26.9
CN(c1ccccc1Cl)S(=O)(=O)c1ccccc1[N+](=O)[O-] |  | > 100 | > 100 | > 100 | > 100 | > 100 | > 100 | > 100 | > 100 | > 100
Cn1ccc(C(=O)NCCCCCNC(=O)c2ccn(C)c(=O)c2O)c(O)c1=O | > 100 | > 100 | > 100 | > 100 | > 100 |  | > 100 | > 100 | > 100 | > 100
OCC(O)C(O)C(O)C(/C=N\Nc1ncnc2ccc(Br)cc12)=N/Nc1ncnc2ccc(Br)cc12 (stereo not drawn) | > 100 |  |  | > 100 | > 100 | > 100 | > 100 | > 100 | > 100 | 
Cc1ccc2nc(Cl)c(/C=N/N3C(=O)/C(=C/c4ccc(N(C)C)cc4)N=C3c3ccccc3)cc2c1 | > 100 |  | > 100 | > 100 | > 100 | > 100 | > 100 | > 100 | > 100 | > 100
COc1cc(CNc2nc3cc(C(F)(F)F)ccc3nc2C)cc(OC)c1OC | 38.1 | 76.1 | 36 | 65 | > 100 | 57.1 | 33.6 | 42.6 | 63.9 | 
COc1nc2[nH]ccc2c(=O)n1C | > 100 | > 100 | > 100 | > 100 | > 100 | > 100 | > 100 | > 100 |  | 
CCOC(=O)C(NCc1cccc(C(F)(F)F)c1)(NC(=O)c1ccccc1)C(F)(F)F (stereo not drawn) | 79.5 | 70.8 |  | 63.6 | > 100 | 93.3 | > 100 | > 100 | 79.4 | 30.9
COc1cc(/C=C/C(=O)OC[C@H](Br)[C@H](OC(C)=O)c2ccc3c(c2)OCO3)cc(OC)c1OC | > 100 | > 100 |  | > 100 | > 100 |  | > 100 | > 100 | > 100 | > 100
C#CCOC(=O)C(N)CCCN=C(N)N (stereo not drawn) | > 100 | > 100 | > 100 | > 100 | > 100 | > 100 | > 100 | > 100 | > 100 | 
COc1ccc(C2(C3c4cc(OC)c(OC)cc4CCN3C)SCCCS2)cc1O (stereo not drawn) |  | > 100 | > 100 | > 100 | > 100 |  | > 100 | > 100 | > 100 | > 100
N#Cc1nc(/C=C/c2ccccc2)oc1N | > 100 | > 100 | > 100 | > 100 | > 100 | > 100 | > 100 | > 100 | > 100 | 
